No end group written: not given here.
How the values were obtained:
[1] = system: Native or MDA-modified peptides 210 and 240; test: Determination of antibody titers against peptide (serum IgG/IgM ELISA); assay type: in vivo, mice; conditions: Example 1; mouse serum 1:50, 405 nm
Protocol: (§1) Male ApoE −/− mice (B&M, RY, DENMARK, 11 week old) were implanted subcutaneously with mini-osmotic pumps (ALZET1002, DURECT CORPORATION) diffusing PBS or 10 μg of P210, MDA-P210 or P240 per day and for 14 day, at a rate of 0.25 μl/h.
Native or MDA-modified peptides 210 and 240 were used for coating (10 μg/ml of each in PBS pH 7.4) microtiter plates (Nunc MaxiSorp, Nunc, Roskilde, Denmark) in an overnight incubation at 4° C. Coated plates were washed with PBS with 0.05% Tween-20 and thereafter blocked with SuperBlock in Tris-buffered saline (TBS, Pierce) for 5 minutes at room temperature followed by an incubation of mouse serum diluted 1:50 in TBS-0.05% Tween-20 for 2 hours at room temperature and overnight at 4° C. After rinsing, depositions were detected by using biotinylated goat anti-mouse IgM or IgG antibodies (JACKSON IMMUNORESEARCH, West Grove, Pa.) that were incubated for 2 hours at room temperature. The plates were washed and bound biotinylated antibodies were detected by alkaline phosphatase-conjugated streptavidin (SIGMA). The color reaction was developed using phosphatase substrate kit (Pierce). The absorbency at 405 nm was measured after 1 hour of incubation at room temperature. Mean values were calculated after subtraction of background absorbance.

Male ApoE −/− mice = test: Atherosclerotic lesion size (morphometric analysis) in apoE-/- mice after pump delivery of peptide; assay type: in vivo; conditions: Example 2; apoE null mice; result in words
Protocol: as §1
Then, the mice are kept for another 6 weeks and killed at 19 weeks of age.
Total Plasma and HDL cholesterol were measured with a commercially available cholesterol kit (SIGMA) according to the manufacturer's instructions. Morphometric and immuno-histochemical studies were performed in the aortic sinus and in the thoracic aorta (spanning from the brachiocephalic artery to the renal arteries). Collagen fibers were stained with Sirius red. Immuno-histochemical analysis were then performed. The following primary antibodies were used: MOMA-2 (BIOSOURCE INTERNATIONAL) as a specific marker for macrophages; anti-mouse CD3− (SANTA CRUZ); anti-smooth muscle actin, alkaline phosphatase conjugate, clone 1A4 (SIGMA); and anti-IL-10 antibody (SANTA CRUZ). Morphometric analysis was performed with an automated image processor (HISTOLAB, MICROVISION).
Male apoE−/− mice (B&M, RY, DENMARK, 11 week old) were implanted subcutaneously with mini-osmotic pumps (ALZET1002, DURECT CORPORATION) diffusing phosphate buffer saline (PBS) as control or 10 μg per day of P210, MDA-P210 or P240, for 14 days, at a rate of […]. An additional group of mice receiving ovalbumin (OVA) peptide (323-339) served as control.
Then, the mice were kept for another 6 or 10 weeks and killed at 19 or 23 weeks of age.
Male apoE−/− mice (11-week old) were implanted subcutaneously with mini-osmotic pumps (ALZET1002) diffusing phosphate buffer saline (PBS), as control, or 10 μg per day of P210, MDA-P210 or P240, for 14 days at a rate of 0.25 μl/h. An additional group of mice receiving ovalbumin (OVA) peptide (323-339) served as control. Mice were kept for another 6 weeks and killed at 19 weeks of age. […]

CD4+ cells = test: Cell proliferation assay: CD4+ cells with CD11c+ dendritic cells from treated mice, [3H]-thymidine; assay type: cell-based; conditions: Example 1; anti-CD3 3 μg/ml, 72 hours; PBS control 20 000 cpm
Excerpt: T cells were purified from spleen or from draining lymph nodes by negative selection with anti-CD11b (M1/70), anti B220, anti-CD8 and anti-NK cells (DX5) followed by depletion with a mixture of magnetic beads coated with anti-rat Ig (DYNAL). CD11c+ dendritic cells were purified by positive selection with anti-CD11c using directly conjugated anti-CD11c beads (clone N418; MILTENYI BIOTEC).
For the cell proliferation assay, purified CD4+ cells (50 000) were mixed with CD11c+ cells (10 000) and anti-CD3 antibodies (3 μg/ml) for 72 hours. [3H]-Thymidine (1 μCi; PERKIN ELMER) was added for the last 18 hours of cell culture.

FPDLGQEVALNANTKNQKIR (peptide derived from apolipoprotein B) [P240, Human apoB-100 derived peptide, amino acids 3586 to 3605]
IgG against MDA-P210 [1]: 0.62±0.11 absorbance units | IgG against MDA-P240 [1]: 0.037±0.007 absorbance units | IgG against P210 [1]: 0.47±0.09 absorbance units | IgM against MDA-P210 [1]: 0.79±0.45 absorbance units | IgM against MDA-P240 [1]: 1.34±0.52 absorbance units | IgM against P210 [1]: 0.79±0.45 absorbance units

ISQAVHAAHAEINEAGR (peptide derived from ovalbumin) [Control: chicken ovalbumin (OVA) peptide, amino acids 323 to 339, reference compound]
Effect of continuous administration on atherosclerotic plaques, associated inflammation and plaque composition (Male ApoE −/− mice): No significant modification

KTTKQSFDLSVKAQYKKNKH (peptide derived from apolipoprotein B) [P210, Human apoB-100 derived peptide, amino acids 3136 to 3155]
Effect of continuous administration on atherosclerotic plaques, associated inflammation and plaque composition (Male ApoE −/− mice): diminution of the atherosclerotic plaques and of associated inflammation | IgG against MDA-P210 [1]: 1.45±0.49 absorbance units | IgG against MDA-P240 [1]: 0.080±0.038 absorbance units | IgG against P210 [1]: 0.81±0.22 absorbance units | IgM against MDA-P210 [1]: 1.38±0.04 absorbance units | IgM against MDA-P240 [1]: 1.80±0.41 absorbance units | IgM against P210 [1]: 1.17±0.22 absorbance units

MDA-P210: Malondialdehyde (MDA)-modified human apoB-100 derived peptide; native P210 modified by 0.5 mol/L MDA for 3 hours at 37° C. (KTTKQSFDLSVKAQYKKNKH; not fully specified)
Proliferation of CD4+ cells from control mice in the presence of CD11c+ cells from treated mice (CD4+ cells): 9500 cpm | Effect of continuous administration on atherosclerotic plaques, associated inflammation and plaque composition (Male ApoE −/− mice): diminution of the atherosclerotic plaques and of associated inflammation | IgG against MDA-P210 [1]: 0.83±0.28 absorbance units | IgG against MDA-P240 [1]: 0.041±0.007 absorbance units | IgG against P210 [1]: 0.51±0.07 absorbance units | IgM against MDA-P210 [1]: 1.30±0.13 absorbance units | IgM against MDA-P240 [1]: 1.24±0.40 absorbance units | IgM against P210 [1]: 0.55±0.25 absorbance units
